pKi: −log10 of the molar value.
Legend:
[1] = target: T1, mitochondrial glycerophosphate dehydrogenase (mGPD) (Rattus norvegicus, UniProt P35571); experiment: DCIP reduction assay; assay type: biochemical
T1 sequence (P35571 43-727): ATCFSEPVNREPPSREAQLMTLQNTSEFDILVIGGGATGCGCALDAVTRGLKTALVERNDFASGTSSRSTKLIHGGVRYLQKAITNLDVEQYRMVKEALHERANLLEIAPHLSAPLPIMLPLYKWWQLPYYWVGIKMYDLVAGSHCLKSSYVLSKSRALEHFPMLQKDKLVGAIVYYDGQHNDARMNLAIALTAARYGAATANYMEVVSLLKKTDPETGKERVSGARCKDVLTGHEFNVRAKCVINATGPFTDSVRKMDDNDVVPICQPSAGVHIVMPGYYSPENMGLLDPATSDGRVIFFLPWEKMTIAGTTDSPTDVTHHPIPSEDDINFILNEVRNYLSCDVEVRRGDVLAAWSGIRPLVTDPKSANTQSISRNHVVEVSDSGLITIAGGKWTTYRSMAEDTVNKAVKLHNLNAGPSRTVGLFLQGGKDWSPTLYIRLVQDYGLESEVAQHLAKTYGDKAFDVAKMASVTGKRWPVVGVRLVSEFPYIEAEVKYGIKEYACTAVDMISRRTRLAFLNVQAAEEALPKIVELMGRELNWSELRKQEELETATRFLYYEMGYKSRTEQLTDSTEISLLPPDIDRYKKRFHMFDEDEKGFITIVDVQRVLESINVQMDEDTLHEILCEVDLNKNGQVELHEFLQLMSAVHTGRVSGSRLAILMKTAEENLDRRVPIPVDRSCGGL

[2] = target: T2, mitochondrial glycerophosphate dehydrogenase (mGPD) (Homo sapiens, UniProt P43304); experiment: DCIP reduction assay; assay type: biochemical
T2 sequence (P43304 43-727): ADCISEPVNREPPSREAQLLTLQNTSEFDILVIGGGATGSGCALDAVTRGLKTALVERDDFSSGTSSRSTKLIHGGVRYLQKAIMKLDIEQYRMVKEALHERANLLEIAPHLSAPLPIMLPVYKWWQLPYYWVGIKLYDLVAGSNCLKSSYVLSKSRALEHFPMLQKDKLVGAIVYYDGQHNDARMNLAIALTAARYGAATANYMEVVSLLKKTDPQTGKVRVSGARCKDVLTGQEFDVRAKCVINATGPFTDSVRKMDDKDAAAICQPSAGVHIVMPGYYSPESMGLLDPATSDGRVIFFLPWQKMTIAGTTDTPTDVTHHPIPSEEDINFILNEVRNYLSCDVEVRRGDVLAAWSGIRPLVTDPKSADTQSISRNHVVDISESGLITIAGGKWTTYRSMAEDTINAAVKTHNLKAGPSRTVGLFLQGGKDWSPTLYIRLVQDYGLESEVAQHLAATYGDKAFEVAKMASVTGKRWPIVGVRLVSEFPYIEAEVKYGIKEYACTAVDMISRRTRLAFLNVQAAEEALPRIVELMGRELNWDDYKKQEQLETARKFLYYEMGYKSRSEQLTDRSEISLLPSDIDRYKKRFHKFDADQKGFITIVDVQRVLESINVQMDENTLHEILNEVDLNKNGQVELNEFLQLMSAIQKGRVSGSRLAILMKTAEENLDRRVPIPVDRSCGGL

Q: Which results are given for `CN(C)C(=N)N=C(N)N` [metformin]?
A: pKi [1]: ~4.42; pKi [2]: ~4.26
